According to patent US11000033B2, “Ketone or oxime compound, and herbicide” (NISSAN CHEMICAL CORPORATION, priority 2014, dated 2021):

Columns and labels:
Assay type in all cases: in vivo
Digitaria ciliaris = test: Test Example 5: herbicidal effect by foliage application, plastic box (symbol F); conditions: 320 g/ha, 3 weeks after application
Summary of the method: (§1)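 After sowing into sterilized diluvial soil and growing two weeks under glass at 25° C. to 30° C., seedlings receive a uniform foliar spray of diluted emulsion. Damage is judged visually three weeks on.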

Abutilon theophrasti = test: Test Example 5: herbicidal effect by foliage application, plastic box (symbol M); conditions: 320 g/ha, 3 weeks after application
Summary of the method: as §1

Scirpus juncoides = test: Test Example 1: herbicidal activity, application before weed generation in submerged conditions (symbol B); conditions: application herbicide amount 320 g/ha
Summary of the method: (§2)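 Compound emulsion was diluted to a set herbicide amount and applied to the water surface on the sowing day, into submerged (4 cm) alluvial-soil pots sown with mixed weed seeds and transplanted 2.5-leaf rice. Pots were held in a 25–30 °C greenhouse, and weeds were scored 0–5 by herbicidal ratio after 3 weeks.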

[1] = test system: Echinochloa crus-galli var. crus-galli; test: Test Example 3: herbicidal effect by foliage application, Wagner pot (symbol H); conditions: application herbicide amount 320 g/ha
Summary of the method: (§3)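 Rating at 3 weeks post-spray, by defined criteria. Treatment: emulsion diluted with water to a predetermined amount, applied evenly to foliage of 14-day-old plants raised in alluvial soil flooded 0.1–0.5 cm deep at 25–30 °C, rice co-sown.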

Alopecurus myosuroides [2] = test: Test Example 4: herbicidal effect by soil treatment (symbol J); conditions: application herbicide amount 320 g/ha
Summary of the method: (§4)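 Seeds were sown in sterilized diluvial soil, covered with about 1.5 cm of soil, and the soil surface was sprayed with a water-diluted emulsion of the compound at a predetermined rate. Plants grew in a greenhouse at 25° C. to 30° C.; effects were scored visually 3 weeks after application.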

Galium spurium [3] = test: Test Example 5: herbicidal effect by foliage application, plastic box (symbol Q); conditions: 320 g/ha, 3 weeks after application
Summary of the method: as §1

Apera spica-venti [4] = test: Test Example 5: herbicidal effect by foliage application, plastic box (symbol L); conditions: 320 g/ha, 3 weeks after application
Summary of the method: as §1

beet = test: Test Example 5: effect on crop by foliage application, plastic box (symbol f); conditions: 320 g/ha, 3 weeks after application
Summary of the method: (§5)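 Diluvial soil, sterilized and boxed (21 × 13 × 7 cm), received spot-sown seed covered by about 1.5 cm soil; plants were then greenhouse-grown at 25–30° C.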

Setaria viridis = test: Test Example 4: herbicidal effect by soil treatment (symbol G); conditions: application herbicide amount 320 g/ha
Summary of the method: as §4

rapeseed [5] = test: Test Example 5: effect on crop by foliage application, plastic box (symbol g); conditions: 320 g/ha, 3 weeks after application
Summary of the method: as §5

Galium spurium [6] = test: Test Example 4: herbicidal effect by soil treatment (symbol Q); conditions: application herbicide amount 320 g/ha
Summary of the method: as §4

rapeseed [7] = test: Test Example 4: effect on crop by soil treatment (symbol g); conditions: application herbicide amount 320 g/ha
Summary of the method: (§6)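 Seeds were sown in spots on sterilized diluvial soil in a plastic box and covered with about 1.5 cm of soil. Plants were then grown in a greenhouse at 25° C. to 30° C.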

Apera spica-venti [8] = test: Test Example 4: herbicidal effect by soil treatment (symbol L); conditions: application herbicide amount 320 g/ha
Summary of the method: as §4

wheat = test: Test Example 4: effect on crop by soil treatment (symbol e); conditions: application herbicide amount 320 g/ha
Summary of the method: as §6

[9] = test system: Echinochloa oryzacola Vasing.; test: Test Example 1: herbicidal activity, application before weed generation in submerged conditions (symbol A); conditions: application herbicide amount 320 g/ha
Summary of the method: as §2

Stellaria media = test: Test Example 5: herbicidal effect by foliage application, plastic box (symbol P); conditions: 320 g/ha, 3 weeks after application
Summary of the method: as §1

Cyperus difformis = test: Test Example 3: herbicidal effect by foliage application, Wagner pot (symbol E); conditions: application herbicide amount 320 g/ha
Summary of the method: as §3

Alopecurus myosuroides [10] = test: Test Example 5: herbicidal effect by foliage application, plastic box (symbol J); conditions: 320 g/ha, 3 weeks after application
Summary of the method: as §1

Amaranthus retroflexus = test: Test Example 5: herbicidal effect by foliage application, plastic box (symbol N); conditions: 320 g/ha, 3 weeks after application
Summary of the method: as §1

## CON=C(C)CC1CC(O)=C(c2c(C)cc(Br)cc2OC)C1=O (stereo not shown) [6-076, 2-(4-bromo-2-methoxy-6-methylphenyl)-3-hydroxy-5-{2-(methoxyimino)propyl}cyclopent-2-enone]
Digitaria ciliaris
  F: Digitaria ciliaris, herbicidal effect (criteria of Test Example 1): 5 (Herbicidal ratio of 90% or more (almost completely withered))
Abutilon theophrasti
  M: Abutilon theophrasti, herbicidal effect (criteria of Test Example 1): 5 (Herbicidal ratio of 90% or more (almost completely withered))
Scirpus juncoides
  Herbicidal effect grade, B: Scirpus juncoides: 3 (Herbicidal ratio of 40% or higher and lower than 70%)
[1]
  herbicidal effect on H (Echinochloa crus-galli var. crus-galli), grade 0-5: 5 (Herbicidal ratio of 90% or more (almost completely withered))
Alopecurus myosuroides [2]
  J: Alopecurus myosuroides, herbicidal effect grade: 0 (Herbicidal ratio of 5% or lower (almost no effect))
Galium spurium [3]
  Q: Galium spurium, herbicidal effect (criteria of Test Example 1): 3 (Herbicidal ratio of 40% or higher and lower than 70%)
Apera spica-venti [4]
  L: Apera spica-venti, herbicidal effect (criteria of Test Example 1): 5 (Herbicidal ratio of 90% or more (almost completely withered))
beet
  f: beet, effect on crop (criteria of Test Example 1): 0 (Herbicidal ratio of 5% or lower (almost no effect))
Setaria viridis
  G: Setaria viridis, herbicidal effect grade: 5 (Herbicidal ratio of 90% or more (almost completely withered))
Rapeseed [5]
  g: rapeseed, effect on crop (criteria of Test Example 1): 4 (Herbicidal ratio of 70% or higher and lower than 90%)
Galium spurium [6]
  Q: Galium spurium, herbicidal effect grade: 0 (Herbicidal ratio of 5% or lower (almost no effect))
Rapeseed [7]
  g: rapeseed, effect on crop grade: 2 (Herbicidal ratio of 20% or higher and lower than 40%)
Apera spica-venti [8]
  L: Apera spica-venti, herbicidal effect grade: 5 (Herbicidal ratio of 90% or more (almost completely withered))
wheat
  e: wheat, effect on crop grade: 0 (Herbicidal ratio of 5% or lower (almost no effect))
[9]
  Herbicidal effect grade, A: Echinochloa oryzacola Vasing.: 5 (Herbicidal ratio of 90% or more (almost completely withered))
Stellaria media
  P: Stellaria media, herbicidal effect (criteria of Test Example 1): 2 (Herbicidal ratio of 20% or higher and lower than 40%)
Cyperus difformis
  herbicidal effect on E, grade 0-5: 5 (Herbicidal ratio of 90% or more (almost completely withered))
Alopecurus myosuroides [10]
  J: Alopecurus myosuroides, herbicidal effect (criteria of Test Example 1): 5 (Herbicidal ratio of 90% or more (almost completely withered))
Amaranthus retroflexus
  N: Amaranthus retroflexus, herbicidal effect (criteria of Test Example 1): 1 (Herbicidal ratio of 5% or higher and lower than 20%)
